Tests used:
[1] = Plasma protein binding (equilibrium dialysis), dog; type: in vitro ADME; settings: for fraction unbound at 4 h, 5 µM: equilibrium dialysis, read-out: PPB (%), dog (converted); for recovery at 4 h, 5 µM: plasma (freshly thawed), PPB assay recovery
Protocol: Prior to the start of the experiment, dialysis membranes (membrane strips, MW cut-off 12-14 kDa, HTDialysis, Cat.NoJl 101) are soaked in deionized water for 60 min, transferred and left overnight in 20% EtOH. The day of experiment, a 10 mM stock solution of the compound in DMSO is diluted with a factor 10 in DMSO. This solution is further diluted in freshly thawed human, rat, mouse or dog plasma (BioIVT) with a final concentration of 5 μM and final DMSO concentration of 0.5%.
From this solution, an aliquot of 50 μL was taken and matrix matched with an equivalent volume of PBS for the recovery plate, after which 6 volumes of STOP solution were added to the recovery plate. For these recovery plates, no incubation is done.
Equilibrium Dialysis Device (96-well, model HTD96b, HTDialysis, Cat. No. #1006) is assembled according to manufacturer's instructions. Immediately after assembly, a volume of 100 μL of plasma (spiked with compound) is placed on one side of the well and another 100 μL of blank PBS buffer are added to the other side, respectively. Each compound is tested in duplicate. Acebutolol and Nicardipine are used as low and very high binding controls, except for the mouse, Caffeine is used as low binder instead Acebutolol. If the PPB values for these controls are not in the range determined by the historical data, the assay is not validated.
The plate is incubated for 4 h at 37° C. while shaking at 230 rpm. Thereafter, an aliquot of 50 μL is taken from each side of the well and matrix matched (mix of equal volumes of spiked plasma with blank PBS buffer and samples from buffer compartment with blank plasma). Matrix matched samples are further mixed with 3 volumes of STOP solution (acetonitrile/MeOH 2/1 with diclofenac as internal standard). After brief mixing and centrifugation (at 2400 rpm for 15 min, at +4° C.), the supernatant is filtered and transferred into new 96-well plates for analysis on LC-MS/MS (systems API4000).
The percentage of plasma protein bound compound and recovery were calculated using following equations:
with: • Cplasma=peak area of the compound in the plasma/peak area of the IS in the plasma • Cbuffer=peak area of the compound in the buffer/peak area of the IS in the buffer • ‘Concentration’ is the ratio between compound and IS peak areas
The recovery is a control, which allows to be sure that the compound has not a non-specific binding to the plates or is not stable in the plasma in these conditions:
with: • PBS=(ratio of the peak area of the compound/peak area of the IS) in the PBS compartment after 4 h • Plasma=(ratio of the peak area of the compound/peak area of IS) in the plasma compartment after 4 h • Recov=Recovery=ratio of the peak are of the compound I the well recovery/peak area of the IS in the well recovery at TO […]

[2] = Thermodynamic solubility protocol 1 (PBS pH 7.4, citrate buffer pH 3.0); type: physicochemical; settings: 25° C.
Protocol: In a 8 mL glass vial, 1-2 mg of dry matter of the test compound were mixed with the suitable buffers (phosphate-buffered saline pH 7.4 (138 mM NaCl, 2.7 mM KCl, 10 mM K-phosphate) or 100 mM citrate buffer pH 3.0) to reach a theoretical concentration of 4 mM. The solutions were allowed to further equilibrate at 25° C. on a thermostatic shaker. After 4 and 24 hours of shaking, respectively, the incubation mixtures were filtered through HTS filter plates using a vacuum manifold. The filtrates of test compounds were diluted 2-fold with acetonitrile with 4% DMSO before measuring. In parallel, using a 20 mM DMSO stock solution, compound dilutions in 50% acetonitrile/buffer were prepared to the theoretical concentrations of 0 μM (blank), 10 μM, 25 μM, 50 μM, 100 μM and 200 μM with 2% final DMSO to generate calibration curves.
Ondansetron (Sigma Aldrich USA, cat #03639) was used as a reference to control proper assay performance. 200 μl of each sample were transferred to a 96-well plate and solubility was measured in a 200-550 nm range (in steps of 5 nm). The measurements were performed using a Spectra Max Plus reader in UV-Vis mode. Acquisition and analysis of the data were performed using SoftMax Pro v.5.4 (Molecular Devices) and Excel 2010 data analysis software. Proper absorbance wavelengths for calculations were selected for each compound manually based on absorbance maximums (absolute absorbance unit values for the minimum and maximum concentration points within 0-3 OD range). Each of the final datasets was additionally visually evaluated by the operator and goodness of fit (R2) is calculated for each calibration curve.

[3] = Thermodynamic solubility protocol 2 (FaSSIF, FeSSIF); type: physicochemical; settings: 25° C.
Protocol: In a 8 mL glass vial, 1-2 mg of dry matter of the test compound were mixed with the suitable buffers (Fed State Simulated Intestine Fluid (FeSSIF) or Fasted State Simulated Intestine Fluid (FaSSIF)) to reach a theoretical concentration of 4 mM. The solutions were allowed to further equilibrate at 25° C. on a thermostatic shaker. After 4 and 24 hours of shaking, respectively, the incubation mixtures were filtered through HTS filter plates using a vacuum manifold. The filtrates of test compounds were diluted 500-fold with acetonitrile/buffer mixtures with 2% DMSO before measuring. In parallel, using a 20 mM DMSO stock solution, compound dilutions in 50% acetonitrile/buffer (v/v) were prepared to the theoretical concentrations of 0 μM (blank), 10 μM, 25 μM, 50 μM, 100 μM and 200 μM with 2% final DMSO to generate calibration curves. Calibration standards were diluted 100-fold with 50% acetonitrile/water (v/v) mixes before LC-MS/MS measurement (systems API4000 QTRAP).

CC(C)Cc1cc(F)c(-c2nn[nH]n2)c(N2CCN(Cc3cccnn3)[C@@H](C)C2)c1 [Compound A-174, 3-[[(2S)-4-[3-fluoro-5-isobutyl-2-(2H-tetrazol-5-yl)phenyl]-2-methyl-piperazin-1-yl]methyl]pyridazine]
fraction unbound at 4 h, 5 µM [1]: 0.062 | recovery at 4 h, 5 µM [1]: 97% | TSOL pH 3.0 ([2]; time point 4 h): ≥400 μM | TSOL pH 7.4 ([2]; time point 4 h): >400 μM | TSOL pH 3.0 ([2]; time point 24 h): ≥400 μM | TSOL pH 7.4 ([2]; time point 24 h): >400 μM | TSOL FaSSIF pH 6.5 ([3]; time point 4 h): >400 μM | TSOL FeSSIF pH 5.0 ([3]; time point 4 h): >400 μM | TSOL FaSSIF pH 6.5 ([3]; time point 24 h): >400 μM | TSOL FeSSIF pH 5.0 ([3]; time point 24 h): >400 μM

CC(C)Cc1cc(F)c(-c2nn[nH]n2)c(N2CCN(Cc3ccccn3)[C@@H](C)C2)c1 [Compound A-217, (2S)-4-[3-fluoro-5-isobutyl-2-(2H-tetrazol-5-yl)phenyl]-2-methyl-1-(2-pyridylmethyl)piperazine]
fraction unbound at 4 h, 5 µM [1]: 0.042 | recovery at 4 h, 5 µM [1]: 96%

Source: patent US20240368133A1, “Compounds for the Treatment of Pain, in Particular, Neuropathic Pain, and/or Other Diseases or Disorders that are Associated with AT2R and/or AT2R Mediated Signaling” (Confo Therapeutics N.V., priority 2021, published 2024)
